# Reference: US7476509B2, “Compounds and methods for modulating functions of nonclassical cadherins” (Adherex Technologies Inc., priority 2002, dated 2009)
# Test system: SKOV3 human ovarian cancer cells
# Experiment: Effects of ADH358 on confluent cultures of SKOV3 cells (disruption of cell adhesion, microscopic examination)
# Format: cell-based
# Settings: 1 mg/ml of culture medium, 24 hours of treatment
# Method: We investigated the effects of the linear peptide ADH358 (H-RWAPIP-NH2 (SEQ ID NO: 2); Desmocollin derived peptide) on confluent cultures of SKOV3 cells. SKOV3 human ovarian cancer cells express desmosomes (which are composed of desmocollins and desmogleins). SKOV3 human ovarian cancer cells were obtained from Dr. Riaz Farookhi, McGill University, Montreal, Canada. The cells were cultured in minimum essential medium (MEM) supplemented with 10% fetal calf serum, non-essential amino acids, fungizone, penicillin-streptomycin, and gentamicin in a humidified atmosphere (5% CO2) at 37° C. All culture reagents were purchased from GIBCO (Burlington, ON). ADH358 (1 mg/ml of culture medium) was added to confluent cultures of SKOV3 cells. After 24 hours of treatment, the cells were fixed with 4% paraformaldehyde, followed by 3 washes with phosphate buffered saline, and then stained with hematoxylin. Control cultures were grown in the absence of peptide.
substance,measurement,setting,value
H-RWAPIP-NH2 [ADH358],cell morphology / cell-cell attachment of SKOV3 cells,,"detach from one another and adopt an elongated, fibroblast-like morphology"
same,effect on confluent SKOV3 monolayers (cell adhesion),"hematoxylin stain, vs control cultures without peptide",disruption of the confluent SKOV3 monolayers
